Results as given in patent US10813929B2, “Treating cancer with ATR inhibitors” (VERTEX PHARMACEUTICALS INCORPORATED, priority 2011, dated 2020).

Experiments:
[1] = tested on: MRCS fibroblasts; assay: Cell viability assay (Alamar Blue) with irradiation, normal cells; type: cell-based; conditions: VE-821 for 96 h with or without 4 Gy; viability after 8 days; FIG. 1 panel B
Procedure: PSN-1, Panc-1, MiaPaCa-2 pancreatic cancer cell lines and MRCS fibroblasts were treated with increasing concentrations of VE-821 for 96 h combined with or without 4 Gy radiation at 1 h after VE-821 addition. Cell viability was measured after 8 days and shown as normalized to DMSO-treated cells. MiaPaCa-2, PSN-1, Panc1 and MRCS cells (5×104) were plated in 96-well plates and after 4 h treated with increasing concentrations of VE-821 at 1 h before irradiation with a single dose of 6 Gy. Medium was replaced 96 h post-irradiation at which point viability was measured using the using the Alamar Blue assay (Resazurin substrate, SIGMA). Cells were allowed to proliferate and cell viability was again analyzed at day 8 for the different treatment conditions. Cell viability and surviving fraction were normalized to the untreated (control) group.

[2] = tested on: phosphorylation of Chk1 (Ser 345); assay: Western blot analysis of Chk1 inhibition; type: cell-based; conditions: 1 μM VE-821; after gemcitabine (100 nM), radiation (6 Gy) or both; FIG. 1 panel A
Procedure: Cells were treated with 100 nM gemcitabine for 1 h, 1 μM VE-821 was added 1 h later and cells were irradiated (6 Gy) 1 h after that. Drugs were left for the duration of the experiment and cells were lysed at 2 h post-irradiation and subjected to Western blot analysis. MiaPaCa-2 and PSN-1 cells were exposed to gemcitabine and/or 1 μM VE-821 drug 1 h prior to irradiation with a single dose of 6 Gy. Cells were lysed in RIPA buffer 2 h post-irradiation and subjected to SDS-PAGE electrophoresis and immunoblotting. Chemoluminescence (SuperSignal, Millipore) and film exposure was used to detect antibody binding. Exposed film was digitized and figures were assembled using Microsoft PowerPoint.

[3] = tested on: PSN-1, MiaPaCa-2 and PancM cells; assay: Clonogenic survival assay, pancreatic cancer cells; type: cell-based
Procedure: PSN-1 cells were plated as single cells, treated with 1 μM VE-821 at different time points in relation to 4 Gy irradiation and assessed for colony formation after 10 days. The survival fraction at 4 Gy for each of the treatment schedules was determined by taking into account the relevant plating efficiency of unirradiated cells. Cells were treated with 1 μM VE-821 4 h after plating and 1 h prior to irradiation. Drug was removed after 72 h and colony-forming ability was assessed after 10 to 21 days. (n=3). *, P<0.05; **, P<0.01 over DMSO-treated control. A) clonogenic survival curves of cells treated with 1 μM VE-821 and irradiation under hypoxic conditions. Plated cells were transferred to hypoxia (0.5% O2) and acclimatised for 6 h. VE-821 (1 μM) was then added at 1 h prior to irradiation and left for 72 h upon which the medium was replaced. Cells were transferred to normoxia at 1 h post-irradiation. B) clonogenic survival of cells after irradiation with 6 Gy and treatment with 1 μM VE-821 in oxic and hypoxic (0.5% O2) conditions, as described above and in FIG. 1 (n=3). *, P<0.05; **, P<0.01; ***, P<0.001 over DMSO-treated control. A) clonogenic survival of cells treated with gemcitabine and 1 μM VE-821. Cells were treated with increasing concentrations of gemcitabine for 24 h followed by 72 h treatment of 1 μM VE-821. Colony forming ability was assessed after 10 to 21 days. B) clonogenic survival of cells treated with gemcitabine in hypoxia. Plated cells were transferred to hypoxia (0.5% O2) and acclimatised for 6 h. Cells were then treated with increasing concentrations of gemcitabine for 24 h followed by 72 h treatment of 1 μM VE-821. Hypoxic cells were transferred to normoxia 1 h after VE-821 addition. C) clonogenic survival after treatment with 20 nM gemcitabine and VE-821 in oxic and hypoxic (0.5% O2) conditions, as described above. D) clonogenic survival of cells treated with gemcitabine and irradiation. PSN-1 and MiaPaCa-2 cells were treated with 5 nM or 10 nM gemcitabine, respectively, for 24 h, medium was then replaced and 1 μM VE-821 was added from 1 h prior to 72 h post 4 Gy irradiation. Colony forming ability was assessed after 10 to 21 days (n=3). *, P<0.05; **, P<0.01; ***, P<0.001 over DMSO-treated control. Logarithmically growing cells were plated in triplicate in 6-well tissue culture dishes under oxic (21% O2) or hypoxic conditions (0.5% O2) using an InVivo2 300 chamber (Ruskinn Technology, UK). […] Cells were incubated for 10-21 days until colonies were stained with 0.5% crystal violet and counted in a CellCount automated colony counter (Oxford Optronix). Clonogenic survival was calculated and data were fitted in the GraphPad Prism 4.0 (GraphPad Software, CA).

[4] = tested on: PSN1 pancreatic cancer xenografts; assay: PSN1 pancreatic cancer xenograft model with gemcitabine; type: in vivo, female nude MF1 mice; conditions: VE-822 PO q2d 10, 30 or 60 mg/kg with gemcitabine 15 mg/kg IP q3d; FIG. 21
Procedure: PSN1 cells (1×10^6 cells per mouse) were implanted as a mixture in Matrigel (100 μl per mouse) into the flank of female nude MF1 mice and grown to a volume of about 200 mm^3 prior to compound administration. Gemcitabine was dosed alone at 15 mg/kg ip, once every three days (ip, q3d) in 0.5% methylcellulose in water for a maximum of 10 cycles. VE-822 was dosed, as a suspension in 0.5% methylcellulose in water, alone at either 10, 30 or 60 mg/kg po every other day for 28 days (po q2d). Three combination groups received gemcitabine at 15 mg/kg plus VE-822 either at 10, 30 or at 60 mg/kg po on the same schedule as the single agent groups. A control group received vehicle alone (0.5% methylcellulose ip q3d). All drug treatment was stopped on Day 30. Vehicle and VE-822 groups were sacrificed on day 13 due to excessive tumor volumes.
Data shown are mean tumor volume±SEM (n=8 per group). Red filled circles are VE-822 treatment; Black filled squares are vehicle treatment; Green filled circles are gemcitabine treatment; Blue filled circles are gemcitabine and VE-822 (10 mg/kg) treatment; Red filled circles are gemcitabine and VE-822 (30 mg/kg) treatment; Pink filled circles are gemcitabine and VE-822 (60 mg/kg) treatment;

SMILES	radiosensitisation of normal cells (cell viability) [1]	phosphorylation of Chk1 (Ser 345) [2]	radiosensitisation under hypoxic conditions (clonogenic survival) ([3]; 1 μM VE-821, hypoxia 0.5% O2, FIG. 2 panels A-B)	sensitisation to gemcitabine (clonogenic survival) ([3]; 1 μM VE-821 for 72 h after 24 h gemcitabine, oxic and hypoxic (0.5% O2), FIG. 3 panels B-C)	potentiation of chemoradiation (clonogenic survival) ([3]; PSN-1 and MiaPaCa-2, 5 or 10 nM gemcitabine, 1 μM VE-821, 4 Gy, FIG. 3 panel D)	surviving fraction after irradiation ([3]; PSN-1 cells, 1 μM VE-821, 4 Gy, effect increased as drug incubation time after irradiation was extended, FIG. 1 panel C)	antitumor effects of gemcitabine (tumor volume) [4]
CS(=O)(=O)c1ccc(-c2cnc(N)c(C(=O)Nc3ccccc3)n2)cc1 [VE-821]	not normal cells	inhibits phosphorylation of Chk1 (Ser 345)	radiosensitises tumour PSN-1, MiaPaCa-2 and PancM cells under hypoxic conditions	sensitises normoxic and hypoxic cancer cells to gemcitabine	potentiates the effect of chemoradiation	a decrease in surviving fraction was observed	
CNCc1ccc(-c2cc(-c3nc(-c4ccc(S(=O)(=O)C(C)C)cc4)cnc3N)on2)cc1 [VE-822]							enhances the antitumor effects of gemcitabine
